Assay results reported in a melting point compilation (Tetko et al.).
Peptide text beside a SMILES is read from it.

melting point [°C] | Compound
275 | O=[N+]([O-])c1ccc(N=Nc2ccc(O)c3ccccc23)cc1
193 | CCN(CC)S(=O)(=O)c1ccc(C(=O)O)cc1
149 to 154 | O=C1c2ccccc2C(=O)N1CBr
251 to 252 | O=c1[nH]cnc2c1cnn2C1CCCCC1
33.5 | O=C1CCCCCCCCCCCCCCCO1
136 | Cc1ccc2c(c1)OC(C)(c1ccc(C)cc1OC(=O)[C@]13CC[C@](C)(C(=O)O1)C3(C)C)CC2(C)C (stereo partly drawn)
217 | COc1ccc(-c2oc3c(C)c(OC)cc(OC)c3c(=O)c2C)cc1OC
56 | Cc1ccc(O)c(C=O)c1
10 | O=C1CC2CCCCC2C1 (stereo not drawn)
65 to 67 | CCOC(=O)c1ccc(F)cc1F
77 to 79 | CN1CCOc2cc(Br)cnc21
125 | CC12CCC(c3cn(-c4ccccc4)nc31)C2(C)C (stereo not drawn)
150 | CCOC(=O)c1nn(-c2ccc(C)cc2)c(=N)c(C#N)c1C
273 to 274 | O=S(=O)(O)CC(O)CN1CCOCC1 (stereo not drawn)
167 to 170 | CC(C)n1c(O)nnc1S
100 | O=C(Cl)c1csc(-c2ccccc2)n1
193 | CC12CCC(CCC1=O)C2(C)C (stereo not drawn)
104 to 106 | O=C(CCl)Nc1ccc(Oc2ccccc2)cc1
127 | O=[N+]([O-])CC(Nc1ccccc1)c1cccc(C(C[N+](=O)[O-])Nc2ccccc2)c1 (stereo not drawn)
42 to 44 | CC(C)CC(C)(O)C#CC(C)(O)CC(C)C (stereo not drawn)
89 to 92 | C1COCCNCCOCCOCCN1
58 to 59 | Cc1nn(-c2ccccc2)c(C)c1C(=O)Cl
78 to 82 | OCCOc1ccccc1OCCO

melting point [°C] | Compound
-40 | Cc1ccc2c(c1)CCCC2
48.5 | Clc1ccc(CC(=CCN2CCCC2)c2ccccc2)cc1
66 to 68 | COc1ccc(C2CCCCC2)cc1N
-13.6 | CC(=O)N1CCCC(C)C1 (stereo not drawn)
205 | O=C1OC2(Cc3ccccc31)C(=O)c1ccccc1C2=O
64 to 66 | CC(=C(C)c1ccccc1)c1ccccc1
167 | NS(=O)(=O)c1cccc([N+](=O)[O-])c1
-80 | C=CCOC(=O)CCC
204 | Cc1cccc(C)c1OCC(C)N (stereo not drawn)
192 to 195 | Sc1nc2ccccc2o1
297 | COc1ccc(-c2cc3c(C#N)c(N)[nH]n3c(=O)c2C#N)cc1
69.5 | CCC(=O)c1ccc2c(c1)N(CCCN(C)C)c1ccccc1S2
143 | Cc1ccc(N2C(=O)C=CC2=O)cc1Cl
143 to 147 | CC(C)[C@H](NC(=O)OCC1c2ccccc2-c2ccccc21)C(=O)O
206 | CC1(C)CC(=O)C(=Cc2ccc(-c3ccc(Cl)cc3)o2)C(=O)C1
144 | Cc1ccccc1NC(=N)NC(=N)N
250 | N#Cc1cc2cc3c4c(c2oc1=O)CCCN4CCC3
110 | COc1cc(N)c(Cl)cc1C(=O)NC1CCN(CCCOc2ccc(F)cc2)CC1OC (stereo not drawn)
293 to 294 | O=C(O)c1ccc2ncccc2c1
87 | Cc1cc(C)c(CO)c(C)c1
51 to 53 | CNCc1ccc(-c2noc(C)n2)cc1
308 to 309 | O=Cc1c[nH]c2c(C(=O)O)cccc12
190 | CC(CCC(=O)O)C1CCC2C3CCC4C(Br)C(=O)CCC4(C)C3CCC12C (stereo not drawn)

melting point [°C] | Compound
257 to 260 | O=C(O)C1=NN(c2ccccc2)C(=O)C1=CC1C(=O)N(c2ccccc2)N=C1C(=O)O (stereo not drawn)
-35 | NCCNCCNCCN
60 to 64 | CC(C)(C)C(=O)Nc1ccncc1C=O
186 | Cc1nc([N+](=O)[O-])cn1-c1ccc([N+](=O)[O-])cc1
139 | CC1(C)CC(=O)C2=C(C1)Nc1c(ccc3ccccc13)C2c1ccc(Cl)cc1 (stereo not drawn)
162 | O=C(NCO)NS(=O)(=O)c1ccc(NC(=O)c2ccccc2C(=O)O)cc1
154 to 155 | CC1(c2ccccc2)CC(C(=NOCC(=O)c2ccccc2)c2cc3ccccc3o2)C1 (stereo not drawn)
63 to 64 | Cn1c(C=O)cc2sccc21
-70 | CCO[Si](C)(C)OCC
193 | O=C1c2cccc(O)c2C(=O)c2c(O)cccc21
300 | NCC(=O)NCC(=O)NCC(=O)NCC(=O)O (H-GGGG-OH)
52 to 53 | O=Cc1ccc2c(c1)OCCO2
194 to 196 | COc1ccc2c(c1)CCc1c-2[nH]c2ccc(OC)cc12
186 | C=C=Cn1cnc2c(N)ncnc21
17.1 | CCCCCCCCCC=CC(=O)O
85 to 88 | CC(C)(C)OC(=O)N[C@@H](Cc1ccccc1)C(=O)O
130 to 135 | Cc1nc(-c2ccc(Br)cc2)cs1
79 | Clc1cc(N2CCCCC2)ncn1
-10.5 | CCCC(C1CCCCC1)C1CCCCC1
27 to 28 | Cc1oncc1I
11.5 | CCOC(=O)c1cccc(C(=O)OCC)c1
223 | O=Cc1cc(O)c(O)cc1O
300 | Nc1ccc2cc(S(=O)(=O)O)cc(S(=O)(=O)O)c2c1

melting point [°C] | Compound
103 | NS(=O)(=O)c1ccc(SCCCCCO)cc1
220 | O=C(O)CN=C(S)C(=S)NCC(=O)O
74 | CC(=O)c1c2ccccc2cc2ccccc12
168 | CN(C)C=Nc1c(I)cc(I)c(CCC(=O)O)c1I
213 to 215 | COc1ccc(C=Nc2ccc(C3=NNC(=O)CC3)cc2)cc1
189 | N#Cc1ccc(C[C@H](NC(=O)OCC2c3ccccc3-c3ccccc32)C(=O)O)cc1
245 to 246 | O=[N+]([O-])c1ccc(C2Nn3c(nnc3-c3cccnc3)S2)cc1 (stereo not drawn)
220 | Cc1nc(C2CCN(C(=O)OC(C)(C)C)CC2)sc1C=O
123 to 125 | CC(=O)OC[C@@H](OC(C)=O)[C@H](OC(C)=O)[C@H](OC(C)=O)[C@@H](OC(C)=O)C(=O)CBr
62 to 63 | N#CC(c1ccccc1)N1CCCCC1 (stereo not drawn)
150 | CC(NC(CCc1ccccc1)C(=O)O)C(=O)N1CCCC1C(=O)O (stereo not drawn)
96 to 98 | O=C(O)CCc1ccccc1Br
320 | O=C(O)c1ccc(C(=O)O)c2c(C(=O)O)ccc(C(=O)O)c12
182 to 188 | O=C(O)COc1ccc([N+](=O)[O-])cc1
104 to 105 | COc1cccc2cc(C(=O)C3CC(C)(c4ccccc4)C3)oc12 (stereo not drawn)
293 | CC1(C)OC2CC3C4CCC5=CC(=O)C=CC5(C)C4(F)C(O)CC3(C)C2(C(=O)CO)O1 (stereo not drawn)
46 | OCCCCCCCCCCCBr
128 | COC(=O)c1c(N)sc2c1CCCC2
93 to 94 | CCOC(=O)c1c(-c2ccccc2)csc1NC(=O)CN(CC)CC
292 | CC1(C(=O)O)CCC2(C)CCC3(C)C(=CC(=O)C4C5(C)CCC(OC(=O)CCC(=O)O)C(C)(C)C5CCC43C)C2C1 (stereo not drawn)
82 | O=COC1OC(=O)c2ccccc21 (stereo not drawn)
45.8 | c1ccc(C2=NNCC2)cc1
-85 | CCCCC(O)C(C)C (stereo not drawn)

melting point [°C] | Compound
11 | OCCCCCCCCl
9 | CC/C=C/C(=O)O
138 | CCCCCCCCCCCC[N+]1=C(C=Cc2cc([N+](=O)[O-])cc([N+](=O)[O-])c2[O-])C(C)(C)c2ccccc21
83 to 83.5 | O=C(CC1(O)Cc2ccccc21)c1ccccc1 (stereo not drawn)
300 | CC(C)(C)[C@@H]1NC(=O)CNC1=O
91 to 95 | CC(=O)Oc1cc(OC(C)=O)cc(C(C)=O)c1
98 to 101 | Cc1nc2ccc(S(=O)(=O)Cl)cc2s1
42 | CC(C)Oc1cc(N)c(Cl)cc1Cl
50 to 52 | Cc1nsc(-c2ccccc2)n1
204 to 207 | O=C(O)c1cc2cc(OC(F)(F)F)ccc2[nH]1
83.5 | ON=Cc1ccc(F)cc1
46 | N#Cc1ccc(F)cc1F
97 to 98.5 | CSc1cc(-c2ccc(Oc3ccccc3)cc2)n[nH]1
213 to 216 | Cc1cccc(C)c1NC(=O)CN(CC(=O)O)CC(=O)O
62 to 63 | COC(=O)CS(C)(=O)=O
164 | CC(=O)/C=C/c1cc(N(C)C)ccc1Cc1ccc(N(C)C)cc1I
119 to 121 | N#CCS(=O)(=O)Cc1cccc(C(F)(F)F)c1
-45 | CC1(N)CCC(C(C)(C)N)CC1 (stereo not drawn)
192 to 194 | O=C(O)c1cccc2c1-c1ccccc1C2
97 to 101 | CCOC(=O)c1csc(-c2ccc(Br)s2)n1

Compound | melting point [°C]
CC1(C)CCC(=Cc2ccc(Cl)cc2)C1(O)Cn1cncn1 (stereo not drawn) | 140
CSSC | -85
CC12CCC3C(CCC4CC5SC5CC43C)C1CCC2O (stereo not drawn) | 127
CC(C)(C)NC(=O)[C@@H]1CC2CCCCC2CN1 (stereo partly drawn) | 115 to 117
CC(C)N1C(=O)N(c2ccccc2)CSC1=NC(C)(C)C | 105
N#CCCCCCC#N | -31.4
CC(C)OC(=O)C(C(=O)OC(C)C)=C1SCCS1 | 54.9
CCc1cccc2ccccc12 | -13.9
O=S1(=O)OCC2C(CO1)C1(Cl)C(Cl)=C(Cl)C2(Cl)C1(Cl)Cl (stereo not drawn) | 182
Clc1ccc2c(c1)Oc1cc(Cl)ccc1O2 | 151
NN=C(N)C(S)=NN | 150
Fc1cccc(Cl)c1C(Cl)(Cl)Cl | 38 to 43
COc1ccc(C(=O)Cc2c(CCN(C)C)cc3c(c2OC)OCO3)c(C(=O)O)c1OC | 138
CCOC(=O)C1C(=N)Oc2c(c(=O)oc3ccccc23)C1c1ccc(Br)cc1 (stereo not drawn) | 192
O=[N+]([O-])c1c(Cl)c(Cl)cc(Cl)c1Cl | 100
N=C(N)NC(N)=S | 172
